In ChEMBL document CHEMBL1201862, “PubChem BioAssay data set” (2004):
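Grown in 96-well plates, cells were treated for 48 hours with each compound at five concentrations. Insufficient inhibition: endpoint recorded as highest concentration tested. GI50: concentration for 50% inhibition of growth.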 The source made the active and inactive calls. No stated cut-off is given here; in the data, active = GI50 up to about 1.1 µM and inactive = higher.

Experiments:
Test in all cases: NCI-60 cell line screen, 48 h
A498 = tested on: A498
ACHN = tested on: ACHN
COLO 205 = tested on: COLO 205
HL-60 = tested on: HL-60
IGROV-1 = tested on: IGROV-1
M14 = tested on: M14
NCI-H226 = tested on: NCI-H226
OVCAR-4 = tested on: OVCAR-4
OVCAR-5 = tested on: OVCAR-5
SF-539 = tested on: SF-539
SK-MEL-28 = tested on: SK-MEL-28
SK-MEL-2 = tested on: SK-MEL-2
SK-OV-3 = tested on: SK-OV-3
SN12C = tested on: SN12C
UACC-62 = tested on: UACC-62
LOX IMVI = tested on: LOX IMVI
SR = tested on: SR

Measured: GI50

N=c1oc2c(O)c(O)ccc2cc1C(N)=O
inactive: A498 > 100 µM | ACHN > 100 µM | COLO 205 41.6 µM | HL-60 > 10 µM | IGROV-1 > 100 µM | M14 43 µM | NCI-H226 > 100 µM | OVCAR-4 17.5 µM | OVCAR-5 > 100 µM | SF-539 > 100 µM | SK-MEL-28 85.7 µM | SK-MEL-2 48.2 µM | SK-OV-3 > 100 µM | SN12C > 100 µM | UACC-62 35.1 µM

Cc1ccc(NC(=O)CCc2nnc(N)o2)cc1
inactive: A498 > 100 µM | ACHN > 100 µM | COLO 205 > 100 µM | HL-60 > 67.3 µM | IGROV-1 > 100 µM | LOX IMVI > 100 µM | M14 > 100 µM | NCI-H226 > 100 µM | OVCAR-4 > 100 µM | OVCAR-5 > 100 µM | SF-539 > 100 µM | SK-MEL-28 > 100 µM | SK-MEL-2 > 100 µM | SK-OV-3 > 100 µM | SN12C > 100 µM | UACC-62 > 100 µM

CN1C(=O)c2cccc3c([N+](=O)[O-])ccc(c23)C1=O
inactive: A498 2.65 µM | ACHN 10.1 µM | COLO 205 7.26 µM | IGROV-1 3.49 µM | LOX IMVI 6.12 µM | M14 11.1 µM | NCI-H226 1.56 µM | OVCAR-4 13 µM | OVCAR-5 3.5 µM | SF-539 13.2 µM | SK-MEL-28 18.8 µM | SK-MEL-2 10.8 µM | SK-OV-3 14.7 µM | SN12C 12.4 µM | SR 3.25 µM | UACC-62 1.77 µM

Nc1ccc(C2=Nc3ccccc3SC(c3ccccc3O)C2)cc1 (stereo unspecified)
inactive: A498 7.13 µM | ACHN 42.2 µM | COLO 205 45.1 µM | HL-60 23.9 µM | IGROV-1 46.6 µM | LOX IMVI 30.7 µM | M14 54.6 µM | NCI-H226 33.3 µM | OVCAR-4 51.6 µM | OVCAR-5 > 100 µM | SF-539 38.2 µM | SK-MEL-28 65.8 µM | SK-MEL-2 > 100 µM | SK-OV-3 > 100 µM | SN12C 45.5 µM | UACC-62 38.8 µM

Nc1ncnc2c1ncn2C1OC(CSC(F)F)C(O)C1O (stereo unspecified)
inactive: A498 > 100 µM | ACHN > 100 µM | COLO 205 > 100 µM | HL-60 > 100 µM | IGROV-1 > 100 µM | LOX IMVI > 100 µM | M14 > 100 µM | NCI-H226 > 100 µM | OVCAR-4 > 100 µM | OVCAR-5 > 100 µM | SF-539 > 100 µM | SK-MEL-28 > 100 µM | SK-MEL-2 > 100 µM | SK-OV-3 > 100 µM | SN12C > 100 µM | UACC-62 > 100 µM

COc1ccc(/C(Cl)=C(\C=O)c2ccc(Br)cc2)cc1OC
inactive: A498 88.9 µM | ACHN > 72.6 µM | COLO 205 > 100 µM | HL-60 17 µM | IGROV-1 > 100 µM | LOX IMVI 18.3 µM | M14 > 100 µM | NCI-H226 19.5 µM | OVCAR-4 > 100 µM | OVCAR-5 > 100 µM | SF-539 26.1 µM | SK-MEL-28 > 100 µM | SK-MEL-2 16.5 µM | SK-OV-3 > 100 µM | SN12C > 100 µM | UACC-62 33.7 µM

CCOC(=O)NC(=O)c1cn(CCN2CCNCC2)c(=O)[nH]c1=O
inactive: ACHN > 100 µM | COLO 205 > 100 µM | HL-60 > 100 µM | IGROV-1 > 100 µM | LOX IMVI > 100 µM | M14 > 100 µM | NCI-H226 > 100 µM | OVCAR-4 > 100 µM | OVCAR-5 > 100 µM | SF-539 > 100 µM | SK-MEL-28 > 100 µM | SK-MEL-2 > 100 µM | SK-OV-3 > 100 µM | SN12C > 100 µM | SR > 100 µM | UACC-62 > 100 µM

O=S1(=O)CS(=O)(=O)OCCCCCO1
inactive: A498 > 100 µM | ACHN > 100 µM | COLO 205 > 100 µM | IGROV-1 > 100 µM | LOX IMVI > 100 µM | M14 > 100 µM | NCI-H226 > 100 µM | OVCAR-4 > 100 µM | OVCAR-5 > 100 µM | SK-MEL-28 > 100 µM | SK-MEL-2 > 100 µM | SK-OV-3 > 100 µM | SN12C > 100 µM | UACC-62 > 100 µM

C[N+]1(C)C/C(=C\c2ccc(O)cc2)C(=O)/C(=C/c2ccc(O)cc2)C1
inactive: A498 85.1 µM | ACHN > 100 µM | COLO 205 47.1 µM | HL-60 19.5 µM | IGROV-1 > 100 µM | LOX IMVI 56.8 µM | M14 > 100 µM | OVCAR-4 > 100 µM | OVCAR-5 > 100 µM | SF-539 65 µM | SK-MEL-28 > 100 µM | SK-OV-3 > 100 µM | SN12C 18.5 µM | SR 82.4 µM | UACC-62 64.9 µM

Cc1c(C(=O)c2ccccc2C(=O)O)c2ccccc2n1C
inactive: A498 > 100 µM | ACHN > 100 µM | HL-60 > 100 µM | IGROV-1 > 100 µM | M14 > 100 µM | NCI-H226 > 100 µM | OVCAR-4 > 100 µM | OVCAR-5 > 100 µM | SF-539 > 100 µM | SK-MEL-28 > 100 µM | SK-MEL-2 > 100 µM | SK-OV-3 > 100 µM | UACC-62 > 100 µM

FC(F)(F)c1ccc2nc(NCc3ccccc3)c(-c3ccccc3)nc2c1
inactive: ACHN 33.2 µM | COLO 205 37.2 µM | HL-60 19.3 µM | LOX IMVI 26.3 µM | NCI-H226 37.8 µM | OVCAR-5 90.2 µM | SF-539 30.2 µM | SK-MEL-28 84.9 µM | SK-MEL-2 32.9 µM | SK-OV-3 38.4 µM | SN12C 36.6 µM | SR 24.9 µM | UACC-62 39 µM

CCOC(=O)[C@H]1Nc2ccc(Cl)cc2[C@H]2CCC[C@@H]12
inactive: ACHN > 100 µM | COLO 205 > 100 µM | IGROV-1 > 100 µM | LOX IMVI > 100 µM | M14 > 100 µM | NCI-H226 > 100 µM | OVCAR-4 56.9 µM | OVCAR-5 63.5 µM | SF-539 > 100 µM | SK-MEL-28 > 100 µM | SK-MEL-2 > 100 µM | SN12C > 100 µM | SR > 100 µM | UACC-62 > 100 µM

CN(C)CC/C(=N\Nc1c(F)c(F)c(F)c(F)c1F)c1ccccc1
inactive: A498 74.5 µM | ACHN 30.9 µM | COLO 205 > 100 µM | HL-60 9.68 µM | IGROV-1 22.2 µM | LOX IMVI 32.7 µM | M14 > 10 µM | OVCAR-4 16.9 µM | OVCAR-5 49.9 µM | SF-539 40.2 µM | SK-MEL-28 > 100 µM | SK-MEL-2 32.7 µM | SK-OV-3 3.32 µM | SN12C 37.8 µM | SR 17.6 µM | UACC-62 34.5 µM
